Several values for one entry are separate records, joined by “and”; a condition that tells them apart may be missing. Equal entries are not always repeated.
Experiments:
[1] = test system: leg blood flow; conditions: cited from earlier work; for relative vasoactive potency (rank order): only for blood flows around 3.5 Lmin^−1
[2] = test system: coronary arteries in humans with coronary artery disease; experiment: FFR during continuous intracoronary infusion via microcatheter (Example 3); type: in vivo; conditions: individual patients, 320 μg/min
[3] = test system: coronary arteries in humans with coronary artery disease; experiment: FFR during continuous intracoronary infusion via guiding catheter (Example 2); type: in vivo; parameters: key: FFR = Pd/Pa (distal/proximal coronary pressure ratio); conditions: Example 5 summary; Ttest 0.0034 adenosine vs UTP
[4] = test system: pulmonary and systemic circulation of healthy female pigs; experiment: Systemic (central intravenous) nucleotide infusion in pigs, hemodynamic response; type: in vivo; conditions: for increase in CO (cardiac output): FIG. 7b; for increase in HR from baseline: FIG. 7c; for decrease in SV (stroke volume): FIG. 7d; for MAP lowered by, from baseline: p<0.05, FIG. 7a; for decrease in PVR (pulmonary vascular resistance) from baseline: pig, in vivo
Procedure: In the present study, the hemodynamic response in the pulmonary and systemic circulation was tested, as well as the effect of central intravenous infusions of ATP, ADP, ADO, and UTP on the heart.
Infusion rates were aimed at exerting a pronounced systemic response in the lowering of arterial blood pressure, but avoiding a total circulatory collapse.
Methods: 10 healthy female pigs (Department of Experimental Medicine and Surgery, University of Copenhagen, Denmark) bred as a combination of the Danish Landrace (⅓) and Yorkshire (⅔), with a medium weight of 41±2 kg were investigated.
Mean arterial blood pressure (MAP) was obtained from the catheter in arcus aorta with the transducer (Pressure Monitoring Kit, Baxter, Deerfield, Ill., USA) positioned at the level of the heart. The left femoral artery was subsequently exposed and an ultrasound doppler probe attached for peripheral femoral artery flow measurements (CM-4000, Cardiomed, Norway). MAP, HR and peripheral flow were monitored and data continuously collected using a PowerLab system (Adinstruments, Australia). Cardiac Output (CO) was determined in triplicates by thermodilution, following an injection of 10 ml of cooled saline solution. Blood samples were withdrawn from catheters in aorta and the right atrium at baseline and at steady state when MAP had decreased maximally or by ˜50%. Calculated variables were: stroke volume of the heart (SV=CO/HR), pulmonary vascular resistance (PVR=(MPAP−PCWP)/CO), systemic vascular resistance (SVR=(MAP−MRAP)/CO), leg vascular conductance (LVC=LBF/(MAP−MRAP)), and arterial (aorta) and mixed venous (pulmonary artery) oxygen content (Hb*1.34*O2 saturation). In the calculation of LVC, MRAP was used as an estimate of mean femoral venous pressure (MFVP), as MRAP was found in a series of measurements to equal MFVP, as estimated in 10 supine pigs. As a potential estimate for myocardial oxygen demand the rate pressure product (RPP=MAP*HR) was also calculated.
Drug infusions: Each animal was administered the nucleotides ATP, UTP, ADP (Sigma, St. Louis, Mo., USA) and ADO (Item Development AB, Stocksund, Sweden), through the internal jugular vein in the right atrium, in random order following blinded allocation. The nucleotides and ADO were prepared by dissolving in saline so as to achieve the target concentration of ATP (40±0.5 μmol/min), ADP (43±8 μmol/min), UTP (up to 1,600 μmol/min), and ADO (73±7 μmol/min). The nucleotides were infused in increasing dosages at 2 min intervals aiming at reducing MAP by maximally ˜50%. Thereafter, that specific infusion rate was maintained for ˜3-5 min. After each intervention the animal rested for ˜30 min, allowing resting cardiovascular variables to be reestablished. Thereafter, a new cycle of nucleotide infusion was administered. In the present study we aimed to allow the drugs to reduce MAP by ˜50%, but without inducing a hemodynamic and circulatory collapse, to simulate a pronounced state of systemic vasodilation, as may be observed for instance in a shock condition.

Row | SMILES | blood flow increase, % of maximum in the leg during hard exercise ([1]; local infusion) [%] | relative vasoactive potency (rank order) [1] | FFR [2] | FFR Mean [3] | increase in CO (cardiac output) [4] | increase in HR from baseline [4] | decrease in SV (stroke volume) [4] | arrhythmias (missed beats, VT, SVT or AV nodal block) ([4]; intravenous systemic infusion) | infusion rate giving the ~35% reduction in MAP ([4]; maximal MAP reduction obtainable with UTP) [µmol/min] | decrease in SVR (systemic vascular resistance) from baseline ([4]; p<0.05) [%] | increase in LVC (leg vascular conductance) from baseline ([4]; p<0.05) | increase in LBF (leg blood flow) ([4]; p<0.05, FIG. 6c) | MAP lowered by, from baseline [4] [%] | decrease in PVR (pulmonary vascular resistance) from baseline [4] | decrease in rate pressure product ([4]; tendency) [%] | FFR ([2]; listed as ADO) | decrease in LBF (leg blood flow) from baseline ([4]; p<0.05) [%] | increase in LVC (leg vascular conductance) from baseline ([4]; p<0.05, listed as ADO) [%] | infusion rate at target MAP ([4]; target ~50% reduction in baseline MAP, right atrium infusion) [µmol/min]
1 | O=c1ccn([C@@H]2O[C@H](COP(=O)(O)OP(=O)(O)OP(=O)(O)O)C(O)[C@@H]2O)c(=O)[nH]1 (stereo partly shown) [UTP, Uridine 5-triphosphate] | 60 | 100 | 0.90 (2×) and 0.89 and 0.72 and 0.77 and 0.86 and 0.56 and 0.69 and 0.84 | 0.72 | 72.5±15.2% and ~70% | 51.1±9.0% | did not significantly change SV | does not produce arrhythmias | 86.5 ± 18.2 | 62.9±2.6 | 150.0±17.1% and ~150% | 53.7±17.8% and ~50% | 35.0±3.2 | did not significantly alter | ~10 | – | – | – | –
2 | Nc1ncnc2c1ncn2[C@@H]1O[C@H](CO)[C@@H](O)[C@H]1O [adenosine] | – | 5.8 | – | 0.77 | 31.4±9.9% | did not increase | did not significantly change SV | – | – | 59.0±3.0 | ~50% | – | 47.2±1.5 | 34.3±2.6% | – | 0.79 and 0.96 and 0.54 and 0.70 (2×) and 0.95 and 0.86 and 1.02 and 0.89 | 19.4±10.7 | 56.4±12.9 | 72.7 ± 6.6

Source: patent US8394355B2, “Use of UTP for the diagnosis of stenoses and other conditions of restricted blood flow” (P2 science Aps, priority 2009, dated 2013)
